Like-named read-outs stand apart in the source and are kept apart here.
Key:
DNA-PK = DNA-PK (Homo sapiens (Human), UniProt P78527); test: DNA-PK assay (biochemical), flashplate 33P-ATP kinase assay; conditions: biochemical DNA-PK assay
In short: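 Reactions ran in streptavidin-coated flashplates and were halted by 200 mM EDTA, with a further 30 min at room temperature before saline washing.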

[1] = molecular target: DNA-PK phosphorylation at serine 2056 (Homo sapiens (Human), UniProt P78527); test: DNA-PK phosphorylation at serine 2056 (cellular), bleomycin-treated HCT116 cells, ELISA; type: cell-based; conditions: cellular DNA-PK phosphorylation at serine 2056, HCT116; read-out: IC50 pDNA-PK
In short: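 Chemiluminescent ELISA read-out; phospho-specific signal normalised to total DNA-PKcs. Cells (HCT116) exposed 6 h to test compound plus 10 μM bleomycin to induce double-strand breaks; DMSO control served as blank.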

Kv11.1 (hERG) = Kv11.1 (hERG) (Homo sapiens (Human), UniProt Q12809); test: Kv11.1 (hERG) ion channel activity (patch clamp assay), HEK293 cells transfected with hERG gene; conditions: hERG patch clamp assay (cells without asterisk)
Kv11.1 (hERG), sequence (Q12809 whole entry): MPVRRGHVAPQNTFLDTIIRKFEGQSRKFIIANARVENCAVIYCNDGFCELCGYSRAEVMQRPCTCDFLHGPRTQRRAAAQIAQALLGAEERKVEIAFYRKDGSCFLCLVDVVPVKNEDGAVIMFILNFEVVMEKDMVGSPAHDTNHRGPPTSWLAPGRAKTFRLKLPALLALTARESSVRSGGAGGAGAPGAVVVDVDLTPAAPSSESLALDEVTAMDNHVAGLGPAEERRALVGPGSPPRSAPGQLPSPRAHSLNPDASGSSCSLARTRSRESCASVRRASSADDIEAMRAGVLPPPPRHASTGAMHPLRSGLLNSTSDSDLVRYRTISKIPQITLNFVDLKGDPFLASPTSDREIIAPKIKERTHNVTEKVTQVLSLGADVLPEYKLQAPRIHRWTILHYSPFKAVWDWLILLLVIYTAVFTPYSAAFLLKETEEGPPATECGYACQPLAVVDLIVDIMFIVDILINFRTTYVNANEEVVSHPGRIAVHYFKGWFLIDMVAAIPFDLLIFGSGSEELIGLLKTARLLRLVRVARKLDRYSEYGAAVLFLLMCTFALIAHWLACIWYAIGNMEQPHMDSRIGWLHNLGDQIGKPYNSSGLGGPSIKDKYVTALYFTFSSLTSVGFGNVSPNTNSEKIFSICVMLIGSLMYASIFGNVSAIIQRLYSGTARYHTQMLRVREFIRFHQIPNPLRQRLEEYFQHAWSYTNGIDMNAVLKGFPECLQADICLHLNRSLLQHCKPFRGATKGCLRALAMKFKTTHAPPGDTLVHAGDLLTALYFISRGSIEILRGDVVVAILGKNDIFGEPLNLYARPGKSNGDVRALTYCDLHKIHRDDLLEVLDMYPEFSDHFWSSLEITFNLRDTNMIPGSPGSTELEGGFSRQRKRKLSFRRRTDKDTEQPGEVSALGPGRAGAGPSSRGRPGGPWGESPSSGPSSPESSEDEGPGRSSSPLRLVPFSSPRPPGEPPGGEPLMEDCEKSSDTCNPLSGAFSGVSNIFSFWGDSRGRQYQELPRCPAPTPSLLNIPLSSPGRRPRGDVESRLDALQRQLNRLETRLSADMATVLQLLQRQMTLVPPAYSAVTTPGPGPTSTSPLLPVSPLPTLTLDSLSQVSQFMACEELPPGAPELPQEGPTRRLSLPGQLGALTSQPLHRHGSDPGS

SMILES | IC50 (DNA-PK) [nM] | IC50 [1] [nM] | Ki (Kv11.1 (hERG); read-out: Ki [Kv1.11 hERG]) [nM] | Ki (Kv11.1 (hERG); Ki [Kv1.11 hERG]) [nM]
OC(c1cc(-c2ncnc3cc(N4CCOCC4)ccc23)ccc1Cl)c1nccn2cccc12 (stereo not drawn) [Example 361, (2-Chloro-5-(7-morpholin-4-yl-quinazolin-4-yl)-phenyl]pyrrolo[1,2-a]-pyrazin-1-ylmethanol] | 3 to 7 | 500 to 5000 | < 10000 | 
OC(c1cc(-c2ncnc3cc(N4CCOCC4)ccc23)ccc1Cl)c1ncnn2cccc12 (stereo not drawn) [Example 362, [2-Chloro-5-(7-morpholin-4-yl-quinazolin-4-yl)-phenyl]pyrrolo[2,1-f]-[1,2,4]triazin-4-yl-methanol] | 3 to 7 | 500 to 5000 | < 10000 | 
Cn1c(C(O)c2cc(-c3ncnc4cc(N5CCOCC5)ccc34)ccc2F)cccc1=O (stereo not drawn) [Example 365, 6-{[2-Fluoro-5-(7-morpholin-4-yl-quinazolin-4-yl)-phenyl]hydroxy-methyl}-1-methyl-1H-pyridin-2-one] | 3 to 7 | 500 to 5000 | > 25000 | 
Cn1c(C(O)c2cc(-c3ncnc4cc(N5CCOCC5)ccc34)ccc2F)cccc1=O (stereo not drawn) [Example 366, 6-{[2-Fluoro-5-(7-morpholin-4-yl-quinazolin-4-yl)-phenyl]hydroxy-methyl}-1-methyl-1H-pyridin-2-one] | 7 to 30 | 5000 to 10000 | > 25000 | 
O=c1ccc(C(O)c2ccc(F)c(-c3ncnc4cc(N5CCOCC5)ccc34)c2)n[nH]1 (stereo not drawn) [Example 367, 6-{[4-Fluoro-3-(7-morpholin-4-yl-quinazolin-4-yl)-phenyl]hydroxy-methyl}-2H-pyridazin-3-one] | < 3 | 500 to 5000 | > 25000 | 
Cn1c(C(O)c2cc(-c3ncnc4cc(N5CCOCC5)ccc34)c(F)cc2Cl)nccc1=O (stereo not drawn) [Example 368, 2-{[2-Chloro-4-fluoro-5-(7-morpholin-4-yl-quinazolin-4-yl)-phenyl]hydroxy-methyl}-3-methyl-3H-pyrimidin-4-one] | 7 to 30 | 5000 to 10000 | > 25000 | 
OC(c1cc(-c2ncnc3cc(N4CCOCC4)ccc23)ccc1Cl)c1nccn2ccnc12 (stereo not drawn) [Example 369, [2-Chloro-5-(7-morpholin-4-yl-quinazolin-4-yl)-phenyl]imidazo-[1,2-a]pyrazin-8-yl-methanol] | 7 to 30 | 5000 to 10000 |  | 15000 to 25000
Cn1cnc2c(C(O)c3cc(-c4ncnc5cc(N6CCOCC6)ccc45)ccc3F)ncnc21 (stereo not drawn) [Example 370, [2-Fluoro-5-(7-morpholin-4-yl-quinazolin-4-yl)-phenyl]-(9-methyl-9H-purin-6-yl)-methanol] | 7 to 30 | 500 to 5000 | > 25000 | 
Cn1cnc2c(C(O)c3cc(-c4ncnc5cc(N6CCOCC6)ccc45)ccc3Cl)ncnc21 (stereo not drawn) [Example 371, [2-Chloro-5-(7-morpholin-4-yl-quinazolin-4-yl)-phenyl]-(9-methyl-9H-purin-6-yl)-methanol] | 7 to 30 | 500 to 5000 |  | 10000 to 15000
OC(c1cc(-c2ncnc3cc(N4CCOCC4)ccc23)ccc1F)c1nccn2ccnc12 (stereo not drawn) [Example 372, [2-Fluoro-5-(7-morpholin-4-yl-quinazolin-4-yl)-phenyl]imidazo-[1,2-a]pyrazin-8-yl-methanol] | 7 to 30 | 500 to 5000 | > 25000 | 
OC(c1cc(-c2ncnc3cc(N4CCOCC4)ccc23)ccc1F)c1cccc2nncn12 (stereo not drawn) [Example 373, [2-Fluoro-5-(7-morpholin-4-yl-quinazolin-4-yl)-phenyl]-[1,2,4]-triazolo[4,3-a]pyridin-5-ylmethanol] | 3 to 7 | 500 to 5000 |  | 15000 to 25000
OC(c1cc(-c2ncnc3cc(N4CCOCC4)ccc23)ccc1F)c1ncnc2ccoc12 (stereo not drawn) [Example 374, [2-Fluoro-5-(7-morpholin-4-yl-quinazolin-4-yl)-phenyl]furo[3,2-d}-pyrimidin-4-yl-methanol] | < 3 | 500 to 5000 |  | 15000 to 25000
Cn1c(C(O)c2ccc(F)c(-c3ncnc4cc(N5CCOCC5)ccc34)c2)cccc1=O (stereo not drawn) [Example 375, 6-{[4-Fluoro-3-(7-morpholin-4-yl-quinazolin-4-yl)-phenyl]hydroxy-methyl}-1-methyl-1H-pyridin-2-one] | < 3 | 500 to 5000 | > 25000 | 
Cn1c(C(O)c2ccc(F)c(-c3ncnc4cc(N5CCOCC5)ccc34)c2)cccc1=O (stereo not drawn) [Example 376, 6-{[4-Fluoro-3-(7-morpholin-4-yl-quinazolin-4-yl)-phenyl]hydroxy-methyl}-1-methyl-1H-pyridin-2-one] | < 3 | < 500 | > 25000 | 
Cc1cncnc1C(C(N)=O)c1cc(-c2ncnc3cc(N4CCOCC4)ccc23)ccc1Cl (stereo not drawn) [Example 377, 2-[2-Chloro-5-(7-morpholin-4-yl-quinazolin-4-yl)-phenyl]-2-(5-methyl-pyrimidin-4-yl)-acetamide] | 3 to 7 | 500 to 5000 |  | 15000 to 25000
Cn1ncc2c(C(O)c3cc(-c4ncnc5cc(N6CCOCC6)ccc45)ccc3Cl)ncnc21 (stereo not drawn) [Example 385, [2-Chloro-5-(7-morpholin-4-yl-quinazolin-4-yl)-phenyl]-(1-methyl-1H-pyrazolo[3,4-d}-pyrimidin-4-yl)-methanol] | 7 to 30 | 500 to 5000 | > 25000 | 
OC(c1cc(-c2ncnc3cc(N4CCOCC4)ccc23)c(F)cc1F)c1ncnc2c1CCNC2 (stereo not drawn) [Example 387, [2,4-Difluoro-5-(7-morpholin-4-yl-quinazolin-4-yl)-phenyl]-(5,6,7,8-tetrahydropyrido-[3,4-d}pyrimidin-4-yl)-methanol] | 7 to 30 | 500 to 5000 |  | 15000 to 25000

The next lines start with results.

IC50 (DNA-PK) [nM] | IC50 [1] [nM] | SMILES | Ki (Kv11.1 (hERG); read-out: Ki [Kv1.11 hERG]) [nM] | Ki (Kv11.1 (hERG); Ki [Kv1.11 hERG]) [nM]
3 to 7 | 500 to 5000 | Cc1cncnc1C(C(N)=O)c1cc(-c2ncnc3cc(N4CCOCC4)ccc23)ccc1Cl (stereo not drawn) [Example 378, 2-[2-Chloro-5-(7-morpholin-4-yl-quinazolin-4-yl)-phenyl]-2-(5-methyl-pyrimidin-4-yl)-acetamide] | > 25000 | 
3 to 7 | 500 to 5000 | OC(c1cc(-c2ncnc3cc(N4CCOCC4)ccc23)c(F)cc1F)c1nnc2ccccn12 (stereo not drawn) [Example 379, [2,4-Difluoro-5-(7-morpholin-4-yl-quinazolin-4-yl)-phenyl]-[1,2.4]-triazolo[4,3-a]pyridin-3-ylmethanol] | > 25000 | 
3 to 7 | 500 to 5000 | Cn1c(C(O)c2cc(-c3ncnc4cc(N5CCOCC5)ccc34)c(F)cc2F)cccc1=O (stereo not drawn) [Example 380, 6-{[2,4-Difluoro-5-(7-morpholin-4-yl-quinazolin-4-yl)-phenyl]hydroxy-methyl}-1-methyl-1H-pyridin-2-one] | > 25000 | 
< 3 | 500 to 5000 | Cn1c(C(O)c2cc(-c3ncnc4cc(N5CCOCC5)ccc34)c(F)cc2F)cccc1=O (stereo not drawn) [Example 381, 6-{[2,4-Difluoro-5-(7-morpholin-4-yl-quinazolin-4-yl)-phenyl]hydroxy-methyl}-1-methyl-1H-pyridin-2-one] | > 25000 | 
7 to 30 | 500 to 5000 | Cn1c(C(O)c2cc(-c3ncnc4cc(N5CCOCC5)ccc34)c(F)cc2Cl)cccc1=O (stereo not drawn) [Example 382, 6-{[2-Chloro-4-fluoro-5-(7-morpholin-4-yl-quinazolin-4-yl)-phenyl]hydroxy-melhyl}-1-methyl-1H-pyridin-2-one] |  | 15000 to 25000
< 3 | < 500 | Cn1c(C(O)c2cc(-c3ncnc4cc(N5CCOCC5)ccc34)c(F)cc2Cl)cccc1=O (stereo not drawn) [Example 383, 6-{[2-Chloro-4-fluoro-5-(7-morpholin-4-yl-quinazolin-4-yl)-phenyl]hydroxy-methyl}-1-methyl-1H-pyridin-2-one] | > 25000 | 
7 to 30 | 10000 to 30000 | Cn1cnc2ncnc([C@H](O)c3cc(-c4ncnc5cc(N6CCOCC6)ccc45)c(F)cc3F)c21 [Example 384, (R)-[2,4-Difluoro-5-(7-morpholin-4-yl-quinazolin-4-yl)-phenyl]-(7-methyl-7H-purin-6-yl)-methanol] | > 25000 | 
7 to 30 | 500 to 5000 | OC(c1ccc(F)c(-c2ncnc3cc(N4CCOCC4)ccc23)c1)c1ncnc2c1CCNC2 (stereo not drawn) [Example 388, [4-Fluoro-3-(7-morpholin-4-yl-quinazolin-4-yl)-phenyl]-(5,6,7,8-tetrahydropyrido-[3,4-d}pyrimidin-4-yl)-methanol] |  | 10000 to 15000
7 to 30 | 5000 to 10000 | OC(c1cc(-c2ncnc3cc(N4CCOCC4)ccc23)ccc1Cl)c1ncncc1F (stereo not drawn) [Example 389, [2-Chloro-5-(7-morpholin-4-yl-quinazolin-4-yl)-phenyl]-(5-fluoro-pyrimidin-4-yl)-methanol] |  | 10000 to 15000
3 to 7 | 500 to 5000 | OC(c1cc(-c2ncnc3cc(N4CCOCC4)ccc23)ccc1Cl)c1ncncc1F (stereo not drawn) [Example 390, [2-Chloro-5-(7-morpholin-4-yl-quinazolin-4-yl)-phenyl]-(5-fluoro-pyrimidin-4-yl)-methanol] |  | 15000 to 25000
7 to 30 | 500 to 5000 | Cn1ncc2c(C(O)c3cc(-c4ncnc5cc(N6CCOCC6)ccc45)ccc3F)ncnc21 (stereo not drawn) [Example 391, [2-Fluoro-5-(7-morpholin-4-yl-quinazolin-4-yl)-phenyl]-(1-methyl-1H-pyrazolo[3,4-d}-pyrimidin-4-yl)-methanol] |  | 15000 to 25000
3 to 7 | 500 to 5000 | Cc1cncnc1C(O)c1cc(-c2ncnc3cc(N4CCOCC4)ccc23)ccc1F (stereo not drawn) [Example 392, [2-Fluoro-5-(7-morpholin-4-yl-quinazolin-4-yl)-phenyl]-(5-methyl-pyrimidin-4-yl)-methanol] |  | 15000 to 25000

Reference: patent US9732094B2, “Arylquinazolines” (Merck Patent GmbH, priority 2013, dated 2017)
